Series [1] deals with T1, 5-HT1A (Homo sapiens, UniProt P08908).
T1 sequence (P08908 1-422): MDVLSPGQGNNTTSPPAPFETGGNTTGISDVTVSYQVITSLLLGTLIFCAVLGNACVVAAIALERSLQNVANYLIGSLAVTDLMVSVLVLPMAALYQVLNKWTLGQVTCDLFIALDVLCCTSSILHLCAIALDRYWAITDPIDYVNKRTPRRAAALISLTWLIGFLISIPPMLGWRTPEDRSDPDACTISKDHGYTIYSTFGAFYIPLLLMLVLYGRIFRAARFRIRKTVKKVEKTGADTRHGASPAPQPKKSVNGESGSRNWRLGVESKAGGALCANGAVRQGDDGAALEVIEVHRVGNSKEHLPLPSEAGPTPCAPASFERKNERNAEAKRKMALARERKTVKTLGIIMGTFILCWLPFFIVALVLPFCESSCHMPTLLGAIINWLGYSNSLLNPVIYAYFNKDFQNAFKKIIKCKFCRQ
The series can be described thus: 5-HT1A receptor binding, [3H]DPAT. The conditions noted are these: radioligand [3H]DPAT.

Where a name gives a salt, the structure may show the parent alone.

`Fc1ccc2[nH]cc(CC3CCN(CCOc4cccc5[nH]ccc45)CC3)c2c1` [Example 1, 5-Fluoro-3-{1-[2-(1H-indol-4-yloxy)ethyl]-piperidin-4-ylmethyl}-1H-indole] had an inhibition constant (Ki) in series [1] of 47 nM. That is a double-digit nanomolar value. Turning to `Fc1ccc2[nH]cc(CC3CCN(CCOc4cccc5[nH]ccc45)CC3)c2c1` (as salt: hydrochloride) (hydrate or solvate) [Example 1, 5-Fluoro-3-{1-[2-(1H-indol-4-yloxy)ethyl]-piperidin-4-ylmethyl}-1H-indole], the melting point was 215 °C (dec.).

`CC(CN1CCC(Cc2c[nH]c3ccc(F)cc23)CC1)Oc1cccc2[nH]ccc12` (stereo not shown) (as salt: hydrochloride) [Example 2, 5-Fluoro-3-[[1-[2-(1H-indol-4-yloxy)propyl]-4-piperidinyl]methyl]-1H-indole] gave a melting point of 130 to 132 °C. Take `CC(CN1CCC(Cc2c[nH]c3ccc(F)cc23)CC1)Oc1cccc2[nH]ccc12` (stereo not shown) [Example 2, 5-Fluoro-3-[[1-[2-(1H-indol-4-yloxy)propyl]-4-piperidinyl]methyl]-1H-indole]: the “5-HT1A [3H]DPAT, percent at 100 nM” value in series [1] (@ 100 nM) is given as 14% @.

For the origin of these results see patent publication US6489342B2, “Aryloxy piperidinyl indoles for treating depression” (Wyeth, priority 2000, dated 2002).
